We go through 23 compounds from US9862679B2, “Potent and selective inhibitors of monoamine transporters; method of making; and use thereof” (priority 2013, dated 2018).

Several values for one entry are separate records, joined by “and”; a condition that tells them apart may be missing. Equal values may be shown once. Read-outs that look alike come from different tables or passages of the source. Some results are limits rather than exact numbers.

Series [1] deals with Sigma 2 (Homo sapiens (Human), UniProt Q5BJF2). In words: Sigma 2 binding affinity (Table 5).
Series [2] concerns the target Sigma 1 (Homo sapiens (Human), UniProt Q99720). In words: Sigma 1 binding affinity (Table 5).
The target in series [3] is dopamine transporter (DAT) (Rattus norvegicus (Rat), UniProt P23977). Kind of series: Dopamine Transporter Binding Assay ([3H]WIN 35428, rat striatal membranes).
For series [4], the target named is T1, serotonin transporter (SERT) (Rattus norvegicus (Rat), UniProt P31652). The settings on record: for Ki: rat brain membranes.
Description: (§1) Brains from male Sprague-Dawley rats weighing 200-225 g (Taconic Labs, Germantown, N.Y.) were removed, midbrain dissected and rapidly frozen. […] Nonspecific binding was determined using 10 mM fluoxetine. […] The filters were washed twice with 3 mL cold buffer and transferred to scintillation vials. Beckman Ready Value (3.0 mL) was added and the vials were counted the next day using a Beckman 6000 liquid scintillation counter (Beckman Coulter Instruments, Fullerton, Calif.). […] Data were analyzed with GraphPad Prism software (San Diego, Calif.).
The target of series [5] is norepinephrine transporter (NET) (Rattus norvegicus, UniProt Q63380). The settings on record: rat brain membranes. As for the experimental part:
Binding affinities of all compounds were evaluated at the DAT, SERT, and NET in rat brain membranes using previously described methods:
Norepinephrine Transporter Binding Assay. Brains from male Sprague-Dawley rats weighing 200-225 g (Taconic Labs, Germantown, N.Y.) were removed, frontal cortex dissected and rapidly frozen. Membranes were prepared by homogenizing tissues in 20 volumes (w/v) of 50 mM Tris containing 120 mM NaCl and 5 mM KCl, (pH 7.4 at 25° C.), using a Brinkman Polytron and centrifuged at 50,000×g for 10 min at 4° C. The resulting pellet was resuspended in buffer, recentrifuged and resuspended in buffer to a concentration of 80 mg/mL. Ligand binding experiments were conducted in assay tubes containing 0.5 mL buffer for 60 min at 0-4° C. […] Nonspecific binding was determined using 1 mM desipramine. Incubations were terminated by rapid filtration through Whatman GF/B filters, presoaked in 0.05% polyethylenimine, using a Brandel R48 filtering manifold (Brandel Instruments Gaithersburg, Md.). The filters were washed twice with 3 mL cold buffer and transferred to scintillation vials. Beckman Ready Value (3.0 mL) was added and the vials were counted using a Beckman 6000 liquid scintillation counter (Beckman Coulter Instruments, Fullerton, Calif.). […] All compounds were tested as racemic mixtures.

Series [6] concerns the target T1, serotonin transporter (SERT). Kind of series: biochemical.
Description: as §1
Series [7] is described as follows: Metabolic stability in mouse plasma. The settings on record: mouse plasma, 10 μM, 0 min. It counts as in vitro ADME. Here is the method: The metabolic stability was evaluated using mouse plasma and mouse liver microsomes.
Where [8] appears, read: Table 5 piperazinyl derivatives, read-out: Sigma 2 Ki ± SEM.
The mark [9] stands for this setting: rat brain membranes, Table 5 piperazinyl derivatives, read-out: DAT Ki ± SEM.
The mark [10] stands for this setting: read-out: SERT Ki ± SEM, Table 5 piperazinyl derivatives.
The mark [11] stands for this setting: read-out: NET Ki ± SEM, Table 5 piperazinyl derivatives.
[12] abbreviates: rat brain membranes, Table 1 thioacetamides and sulfinylacetamides, read-out: Ki (nM) ± S.E.M. DAT.
The mark [13] stands for this setting: read-out: Ki (nM) ± S.E.M. NET, Table 1 thioacetamides and sulfinylacetamides.
The mark [14] stands for this setting: read-out: Ki (nM) ± S.E.M. SERT, Table 2 thioethanamines and sulfinylethanamines.
The mark [15] stands for this setting: Table 5 piperazinyl derivatives, read-out: Sigma 1 Ki ± SEM.
Setting [16] is: read-out: NET Ki, Table 5, bound in M.

T1 sequence (P31652 whole entry): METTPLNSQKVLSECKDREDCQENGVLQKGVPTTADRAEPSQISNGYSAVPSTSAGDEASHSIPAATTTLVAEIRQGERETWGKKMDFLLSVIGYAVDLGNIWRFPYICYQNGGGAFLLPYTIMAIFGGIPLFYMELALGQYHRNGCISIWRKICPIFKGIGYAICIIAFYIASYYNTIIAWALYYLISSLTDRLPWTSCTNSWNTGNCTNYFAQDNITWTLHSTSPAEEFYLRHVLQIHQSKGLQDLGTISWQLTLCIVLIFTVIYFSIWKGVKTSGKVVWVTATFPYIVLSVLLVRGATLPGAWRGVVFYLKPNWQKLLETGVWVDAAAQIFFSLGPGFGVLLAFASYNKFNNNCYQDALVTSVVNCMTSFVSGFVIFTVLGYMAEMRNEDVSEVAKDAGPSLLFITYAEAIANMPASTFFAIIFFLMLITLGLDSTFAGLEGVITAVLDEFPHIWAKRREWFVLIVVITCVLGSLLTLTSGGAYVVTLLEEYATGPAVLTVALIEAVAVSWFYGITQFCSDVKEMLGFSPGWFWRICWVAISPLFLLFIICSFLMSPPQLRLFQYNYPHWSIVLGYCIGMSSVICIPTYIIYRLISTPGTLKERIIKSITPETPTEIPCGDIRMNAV
Chain of Sigma 2 (Q5BJF2 whole entry): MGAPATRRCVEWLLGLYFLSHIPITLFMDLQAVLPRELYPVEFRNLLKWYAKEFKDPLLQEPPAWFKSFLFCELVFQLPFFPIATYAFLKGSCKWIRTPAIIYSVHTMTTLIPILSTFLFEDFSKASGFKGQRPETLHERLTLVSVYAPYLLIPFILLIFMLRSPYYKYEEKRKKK
Chain of dopamine transporter (DAT) (P23977 whole entry): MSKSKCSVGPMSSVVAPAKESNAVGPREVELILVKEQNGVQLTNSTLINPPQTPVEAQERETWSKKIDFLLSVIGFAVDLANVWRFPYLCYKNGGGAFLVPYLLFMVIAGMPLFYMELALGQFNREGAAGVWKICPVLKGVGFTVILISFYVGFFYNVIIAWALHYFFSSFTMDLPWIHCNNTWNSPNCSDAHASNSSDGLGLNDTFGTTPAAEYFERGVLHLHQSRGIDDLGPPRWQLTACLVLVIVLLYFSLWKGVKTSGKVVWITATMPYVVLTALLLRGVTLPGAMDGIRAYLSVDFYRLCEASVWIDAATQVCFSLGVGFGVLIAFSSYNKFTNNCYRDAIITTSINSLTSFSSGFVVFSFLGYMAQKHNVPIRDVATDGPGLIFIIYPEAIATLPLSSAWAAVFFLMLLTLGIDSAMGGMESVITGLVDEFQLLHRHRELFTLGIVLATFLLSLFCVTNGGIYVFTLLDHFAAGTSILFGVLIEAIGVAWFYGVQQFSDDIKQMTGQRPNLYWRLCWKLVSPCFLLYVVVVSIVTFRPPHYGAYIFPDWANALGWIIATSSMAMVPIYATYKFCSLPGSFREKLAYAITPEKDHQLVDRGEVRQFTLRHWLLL
Chain of norepinephrine transporter (NET) (Q63380 1-617): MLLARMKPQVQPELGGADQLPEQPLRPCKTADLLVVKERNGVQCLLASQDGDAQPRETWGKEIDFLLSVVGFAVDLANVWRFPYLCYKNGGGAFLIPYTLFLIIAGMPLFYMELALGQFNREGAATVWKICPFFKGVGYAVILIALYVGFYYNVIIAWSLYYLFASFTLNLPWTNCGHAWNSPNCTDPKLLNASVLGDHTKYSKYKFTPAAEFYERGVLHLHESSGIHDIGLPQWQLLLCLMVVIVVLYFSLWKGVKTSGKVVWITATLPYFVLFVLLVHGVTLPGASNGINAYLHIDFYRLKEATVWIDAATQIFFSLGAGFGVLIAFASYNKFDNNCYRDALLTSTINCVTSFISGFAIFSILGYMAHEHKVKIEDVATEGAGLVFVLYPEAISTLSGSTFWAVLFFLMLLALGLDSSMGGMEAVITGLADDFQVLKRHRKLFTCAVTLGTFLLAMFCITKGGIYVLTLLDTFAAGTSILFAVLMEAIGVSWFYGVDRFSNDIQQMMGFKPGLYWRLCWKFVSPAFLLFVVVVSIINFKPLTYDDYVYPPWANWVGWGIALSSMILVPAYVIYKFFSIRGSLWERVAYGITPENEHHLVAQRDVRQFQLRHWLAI
Chain of Sigma 1 (Q99720 whole entry): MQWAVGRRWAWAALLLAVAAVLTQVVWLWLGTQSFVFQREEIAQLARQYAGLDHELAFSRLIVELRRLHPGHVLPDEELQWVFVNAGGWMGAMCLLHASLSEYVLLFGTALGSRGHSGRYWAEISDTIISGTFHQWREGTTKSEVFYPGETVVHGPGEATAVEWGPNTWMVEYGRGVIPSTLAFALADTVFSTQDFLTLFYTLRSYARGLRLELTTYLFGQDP

For the compound `[O-][S+](CCN1CCN(CC(O)Cc2ccccc2)CC1)C(c1ccc(F)cc1)c1ccc(F)cc1` (racemic) [Compound 10j, 1-(4-(2-((Bis(4-fluorophenyl)methyl)sulfinyl)ethyl)piperazin-1-yl)-3-phenylpropan-2-ol], the Ki (commonly a measure of affinity in units of concentration, obtained from inhibition or displacement) amounted to 176 ± 26.3 nM in series [1] (setting [8]), 336 ± 42.2 nM in series [2], 2.53 ± 0.25 nM in series [3] (setting [9]) and 4610 ± 562 nM in series [4] (setting [10]).

For the compound `c1ccc(CCCN2CCN(CCSC(c3ccccc3)c3ccccc3)CC2)cc1` [Compound 7a, 1-(2-(Benzhydrylthio)ethyl)-4-(3-phenylpropyl)piperazine], the Ki in series [1] worked out at 16.8 ± 2.15 nM; in series [2], 19.9 ± 2.59 nM; in series [3] (setting [9]), 3.58 ± 0.16 nM; in series [5] (setting [11]), 988 nM; in series [4] (setting [10]), 1050 ± 152 nM.

With `O=C(CSC(c1ccccc1)c1ccccc1)NCC1CC1` [Compound 2o, 2-(Benzhydrylthio)-N-(cyclopropylmethyl)acetamide], the figures for the Ki in series [6], in series [3] (setting [12]) and in series [5] (setting [13]) were 20900 nM, 13900 nM and > 100000 nM, respectively.

On to `NCCSC(c1ccc(Cl)cc1)c1ccc(Cl)cc1` [Compound 4b, 2-((bis(4-chlorophenyl)methyl)thio)ethan-1-amine], for which the Ki in series [6] was < 30 nM; in series [4] (setting [14]), 30 nM and 29.9 nM.

`NC(=O)C[S+]([O-])C(c1ccccc1)c1cccc(Br)c1` (stereo not shown) [Compound 3e, 2-(((3-Bromophenyl)(phenyl)methyl)sulfinyl)acetamide]: the Ki in series [6] was > 100000 nM; in series [3] (setting [12]), 550 ± 7.4 nM; in series [5] (setting [13]), > 100000 nM.

With `OC(Cc1ccccc1)CN1CCN(CCSC(c2ccccc2)c2ccccc2)CC1` (racemic) [Compound 9g, 1-(4-(2-(Benzhydrylthio)ethyl)piperazin-1-yl)-3-phenylpropan-2-ol], the Ki in series [1] (setting [8]) turned out to be 31.8 ± 3.63 nM; in series [2] (setting [15]), 30 ± 3.81 nM; in series [3] (setting [9]), 2.54 ± 0.23 nM; in series [5] (setting [11]), 1430 ± 118 nM.

Take `[O-][S+](CCN1CCN(CC(O)Cc2ccccc2)CC1)C(c1ccccc1)c1ccccc1` (racemic) [Compound 10g, 1-(4-(2-(Benzhydrylsulfinyl)ethyl)piperazin-1-yl)-3-phenylpropan-2-ol]: the Ki in series [1] (setting [8]) was determined as 316 ± 25.2 nM; in series [2] (setting [15]), 983 ± 103 nM; in series [3] (setting [9]), 3.43 ± 0.5 nM; in series [5] (setting [11]), 25300 ± 2040 nM; in series [4] (setting [10]), 21700 ± 2020 nM.

As to `CC(O)CN1CCN(CCSC(c2ccccc2)c2ccccc2)CC1` (racemic) [Compound 9a, 1-(4-(2-(Benzhydrylthio)ethyl)piperazin-1-yl)propan-2-ol], the Ki in series [1] turned out to be 92.6 ± 13.5 nM; in series [2], 0.94 ± 0.07 nM; in series [3] (setting [9]) it was 49.6 ± 4.31 nM; in series [5] (setting [11]) it was 44500 ± 2400 nM; in series [4] (setting [10]), 26700 ± 2630 nM.

With `CC(O)CN1CCN(CC[S+]([O-])C(c2ccc(F)cc2)c2ccc(F)cc2)CC1` (racemic) [Compound 10d, 1-(4-(2-((Bis(4-fluorophenyl)methyl)sulfinyl)ethyl)piperazin-1-yl)propan-2-ol], the Ki is 1800 ± 264 nM in series [1] (setting [8]), 1010 ± 134 nM in series [2] (setting [15]), > 100000 nM in series [5] (setting [16]) and 50300 ± 5760 nM in series [4] (setting [10]).

In the case of `Cc1ccc(C(c2ccc(C)cc2)[S+]([O-])CC(N)=O)cc1` (stereo not shown) [Compound 3a, 2-((Di-p-tolylmethyl)sulfinyl)acetamide], the values for the Ki in series [6], in series [3] (setting [12]) and in series [5] (setting [13]) were > 100000 nM, 12700 nM and > 100000 nM, respectively.

For the compound `NCCSC(c1ccc(Br)cc1)c1ccc(Br)cc1` [Compound 4c, 2-((bis(4-bromophenyl)methyl)thio)ethan-1-amine], the Ki in series [6] was < 30 nM; in series [3] (read-out: Ki (nM) ± S.E.M. DAT) it was 488 ± 52.2 nM; in series [4] (setting [14]), 26 nM and 26.3 nM. In series [3], the “improvement in DAT affinity, halogen-substituted v. unsubstituted analogue” value was determined as 3 fold. The “increase in SERT affinity, halogen-substituted v. unsubstituted analogue” value in series [4] (2i v. 2g (Table 1), 4c v. 4a (Table 2)) was 9 fold.

`OC(Cc1ccccc1)CN1CCN(CCSC(c2ccc(F)cc2)c2ccc(F)cc2)CC1` (racemic) [Compound 9j, 1-(4-(2-((Bis(4-fluorophenyl)methyl)thio)ethyl)piperazin-1-yl)-3-phenylpropan-2-ol]: the Ki in series [1] is 38.6 ± 0.94 nM; in series [2] it was 95.4 ± 13.4 nM; in series [5] (setting [11]), 1950 ± 227 nM; in series [4] (setting [10]), 213 nM.

Take `O=C(C[S+]([O-])C(c1ccccc1)c1ccccc1)N1CCN(CCCc2ccccc2)CC1` (stereo not shown) [Compound 12a, 2-(Benzhydrylsulfinyl)-1-(4-(3-phenylpropyl)piperazin-1-yl)ethan-1-one]: the Ki turned out to be 469 ± 66.4 nM in series [1] (setting [8]), 1430 ± 21.1 nM in series [2] (setting [15]), 33 ± 2.83 nM in series [3] (setting [9]) and 15200 ± 1100 nM in series [4] (setting [10]).

For the compound `CCN(CC)CCOC(=O)c1ccc(N)cc1` [Procaine, reference compound], in series [7], the “Metabolic stability, Plasma (% remaining)” value came to 100%.

For `[O-][S+](CCN1CCN(CCCc2ccccc2)CC1)C(c1ccc(F)cc1)c1ccc(F)cc1` (stereo not shown) [Compound 8b, 1-(2-((Bis(4-fluorophenyl)methyl)sulfinyl)ethyl)-4-(3-phenylpropyl)piperazine], the Ki in series [1] (setting [8]) stood at 25.9 ± 1.11 nM; in series [2] (setting [15]), 42.4 ± 5.1 nM; in series [3] (read-out: DAT Ki ± SEM), 2.92 ± 0.38 nM; in series [5] (setting [11]) it was 4280 ± 343 nM.

In the case of `CC(O)CN1CCN(CC[S+]([O-])C(c2ccccc2)c2ccccc2)CC1` (racemic) [Compound 10a, 1-(4-(2-(Benzhydrylsulfinyl)ethyl)piperazin-1-yl)propan-2-ol], the Ki in series [1] (setting [8]) was 3930 ± 208 nM; in series [2] (setting [15]) it was 861 ± 109 nM; in series [3] (read-out: DAT Ki ± SEM), 636 ± 14.7 nM; in series [5] (setting [16]) it was > 100000 nM; in series [4] (read-out: SERT Ki, Table 5, bound in M) it was > 100000 nM.

For the compound `NC(=O)C[S+]([O-])C(c1cccc(F)c1)c1cccc(F)c1` (stereo not shown) [Compound 3c, 2-((Bis(3-fluorophenyl)methyl)sulfinyl)acetamide], the Ki in series [6] was > 100000 nM; in series [3] (setting [12]), 6180 nM; in series [5] (setting [13]), > 100000 nM.

Turning to `NC(=O)C[S+]([O-])C(c1cccc(Cl)c1)c1cccc(Cl)c1` (stereo not shown) [Compound 3d, 2-((Bis(3-chlorophenyl)methyl)sulfinyl)acetamide], the Ki in series [6] and in series [5] (setting [13]) was > 100000 nM in each case.

For `[O-][S+](CCN1CCN(CCCc2ccccc2)CC1)C(c1ccccc1)c1ccccc1` (stereo not shown) [Compound 8a, 1-(2-(Benzhydrylsulfinyl)ethyl)-4-(3-phenylpropyl)piperazine], the Ki in series [1] is 20.5 ± 0.43 nM; in series [2] it was 116 ± 1.24 nM; in series [3] (read-out: DAT Ki ± SEM), 3.17 ± 0.11 nM; in series [5] (setting [11]), 5540 ± 808 nM; in series [4] (setting [10]) it was 7220 ± 944 nM.

As to `O=C(CSC(c1ccc(F)cc1)c1ccc(F)cc1)NCC1CC1` [Compound 2p, 2-((Bis(4-fluorophenyl)methyl)thio)-N-(cyclopropylmethyl)acetamide], the Ki in series [6] came to 35400 nM; in series [3] (setting [12]), 6860 nM; in series [5] (setting [13]), 57600 nM.

`O=C(CSC(c1ccc(Br)cc1)c1ccc(Br)cc1)NCC1CC1` [Compound 2q, 2-((Bis(4-bromophenyl)methyl)thio)-N-(cyclopropylmethyl)acetamide]: the Ki in series [6] was 7270 nM; in series [3] (setting [12]) it was 993 ± 139 nM; in series [5] (setting [13]), > 100000 nM.

`Fc1ccc(C(SCCN2CCN(CCCc3ccccc3)CC2)c2ccc(F)cc2)cc1` [Compound 7b, 1-(2-((Bis(4-fluorophenyl)methyl)thio)ethyl)-4-(3-phenylpropyl)piperazine]: the Ki in series [1] is 28.5 ± 2.14 nM; in series [2], 59.5 ± 5.04 nM; in series [3] (setting [9]), 4.5 ± 0.34 nM; in series [5] (setting [11]), 1890 ± 116 nM; in series [4] (setting [10]), 285 nM.

As for `CC(O)CN1CCN(CCSC(c2ccc(F)cc2)c2ccc(F)cc2)CC1` (racemic) [Compound 9d, 1-(4-(2-((Bis(4-fluorophenyl)methyl)thio)ethyl)piperazin-1-yl)propan-2-ol], the Ki amounted to 84.7 ± 11.9 nM in series [1] (setting [8]), 4.03 ± 0.22 nM in series [2] (setting [15]) and 1770 ± 234 nM in series [4] (setting [10]).
